The values below come from patent publication US11590139B2, “Substituted aminopurine compounds, compositions thereof, and methods of treatment therewith” (Signal Pharmaceuticals, LLC, priority 2014, dated 2023).

Structures are written as SMILES. A value given as a limit tells only on which side of the number the result lay.

For the first assay, the system named is Lox-IMVI melanoma cell line. The experiment in a line: Lox-IMVI anti-proliferative assay (growth inhibition, Cell Titer-Glo). The assay is classed as cell-based, human. The following applies: Homo sapiens; IC50 activity level in the cell-based Lox-IMVI anti-proliferative assay; read-out: Activity. A digest of the protocol:
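Cells grown in RPMI + 10% FBS were exposed to compound at 0.5 nM to 10 μM (10-point, 3-fold dilution, duplicate, 0.2% DMSO final) for 72 h at 37 °C, 5% CO2. Viability was read by ATP luminescence at t0 and 72 h. IC50 came from a four-parameter logistic fit normalized to DMSO control.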
For `NC(=O)[C@H]1CC[C@@H](n2c(Nc3c(F)cc(F)cc3Cl)nc3cnc(NC4CCOCC4)nc32)CC1` [Example 53], the IC50 is less than 0.25 µM.

Regarding `NC(=O)[C@H]1CC[C@@H](n2c(Nc3c(F)cc(Cl)cc3Cl)nc3cnc(NC4CC(F)(F)C4)nc32)CC1` [Example 230, (1s,4s)-4-(8-(2,4-dichloro-6-fluorophenylamino)-2-(3,3-difluorocyclobutylamino)-9H-purin-9-yl)cyclohexanecarboxamide], the IC50 lay in the range of 0.25 to 0.5 µM. Same read-out and setting: as for `NC(=O)[C@H]1CC[C@@H](n2c(Nc3c(F)ccc(Cl)c3F)nc3cnc(N[C@H]4C[C@H](O)C4)nc32)CC1` [Example 286, (1s,4s)-4-(8-(3-chloro-2,6-difluorophenylamino)-2-((1r,3r)-3-hydroxycyclobutylamino)-9H-purin-9-yl)cyclohexanecarboxamide], the figure is greater than 1 µM; as for `C[C@@H](CO)Nc1ncc2nc(Nc3c(F)cc(C#N)cc3F)n([C@H]3CC[C@@H](C(N)=O)CC3)c2n1` [Example 394, (1R,4s)-4-(8-(4-cyano-2,6-difluorophenylamino)-2-((S)-1-hydroxypropan-2-ylamino)-9H-purin-9-yl)cyclohexanecarboxamide], greater than 1 µM; as for `CC(=O)N1CCC(Nc2ncc3nc(Nc4c(Cl)cc(Cl)cc4Cl)n([C@H]4CC[C@@H](C(N)=O)CC4)c3n2)CC1` [Example 197, (1s,4s)-4-(2-(1-acetylpiperidin-4-ylamino)-8-(2,4,6-trichlorophenylamino)-9H-purin-9-yl)cyclohexanecarboxamide], greater than 1 µM. `NC(=O)[C@H]1CC[C@@H](n2c(Nc3c(F)cc(F)cc3F)nc3cnc(N[C@H]4CCC[C@@H]4O)nc32)CC1` [Example 266, (1R,4s)-4-(2-((1S,2S)-2-hydroxycyclopentylamino)-8-(2,4,6-trifluorophenylamino)-9H-purin-9-yl)cyclohexanecarboxamide]: the IC50 was greater than 1 µM. Still for that read-out and setting: the figure for `NC(=O)[C@H]1CC[C@@H](n2c(Nc3cc(Cl)ccc3F)nc3cnc(N[C@@H]4CCC[C@H]4O)nc32)CC1` [Example 262, (1S,4s)-4-(8-(5-chloro-2-fluorophenylamino)-2-((1R,2R)-2-hydroxycyclopentylamino)-9H-purin-9-yl)cyclohexanecarboxamide] is greater than 1 µM; for `NC(=O)[C@H]1CC[C@@H](n2c(Nc3c(F)cc(F)cc3F)nc3cnc(N[C@H]4CCOC[C@H]4F)nc32)CC1` [Example 306, (1R,4s)-4-(2-((3S,4S)-3-fluorotetrahydro-2H-pyran-4-ylamino)-8-(2,4,6-trifluorophenylamino)-9H-purin-9-yl)cyclohexanecarboxamide] it is 0.25 to 0.5 µM; for `N#Cc1cc(Cl)c(Nc2nc3cnc(NC4CCOCC4)nc3n2[C@H]2CC[C@@H](C(N)=O)CC2)c(Cl)c1` [Example 278, (1s,4s)-4-(8-(2,6-dichloro-4-cyanophenylamino)-2-(tetrahydro-2H-pyran-4-ylamino)-9H-purin-9-yl)cyclohexanecarboxamide] it is less than 0.25 µM. `CC1(C)CC[C@@H](Nc2ncc3nc(Nc4c(F)cccc4Cl)n([C@H]4CC[C@@H](C(N)=O)CC4)c3n2)C[C@H]1O` [Example 384, (1S,4s)-4-(8-(2-chloro-6-fluorophenylamino)-2-((1R,3R)-3-hydroxy-4,4-dimethylcyclohexylamino)-9H-purin-9-yl)cyclohexanecarboxamide]: the IC50 is greater than 1 µM. On the same count and under the same terms, as for `Cc1c(Nc2nc3cnc(NC4CCOCC4)nc3n2[C@H]2CC[C@@H](C(N)=O)CC2)ccc(Cl)c1F` [Example 89, (1s,4s)-4-(8-(4-chloro-3-fluoro-2-methylphenylamino)-2-(tetrahydro-2H-pyran-4-ylamino)-9H-purin-9-yl)cyclohexanecarboxamide], the figure is greater than 1 µM; as for `NC(=O)[C@H]1CC[C@@H](n2c(Nc3c(F)ccc(F)c3F)nc3cnc(NC4CCCC4)nc32)CC1` [Example 141, (1s,4s)-4-(2-(cyclopentylamino)-8-(2,3,6-trifluorophenylamino)-9H-purin-9-yl)cyclohexanecarboxamide], 0.5 to 1 µM; as for `NC(=O)[C@H]1CC[C@@H](n2c(Nc3c(Cl)cc(Cl)cc3Cl)nc3cnc(NCC4(CO)CC4)nc32)CC1` [Example 205, (1s,4s)-4-(2-((1-(hydroxymethyl)cyclopropyl)methylami-no)-8-(2,4,6-trichlorophenylamino)-9H-purin-9-yl)cyclohexanecarboxamide], greater than 1 µM.

As to `NC(=O)[C@H]1CC[C@@H](n2c(Nc3c(Cl)cc(F)cc3Cl)nc3cnc(NC4CC(F)(F)C4)nc32)CC1` [Example 231, (1s,4s)-4-(8-(2,6-dichloro-4-fluorophenylamino)-2-(3,3-difluorocyclobutylamino)-9H-purin-9-yl)cyclohexanecarboxamide], the IC50 is greater than 1 µM.

Staying with this assay, now noted: Homo sapiens; Lox-IMVI anti-proliferative assay, IC50 activity level; read-out: Activity.
`C[C@]1(O)CCC[C@@H](Nc2ncc3nc(Nc4c(F)cc(Cl)cc4Cl)n([C@H]4CC[C@@H](C(N)=O)CC4)c3n2)C1` [Example 427, (1S,4s)-4-(8-(2,4-dichloro-6-fluorophenylamino)-2-((1R,3S)-3-hydroxy-3-methylcyclohexylamino)-9H-purin-9-yl)cyclohexanecarboxamide]: the IC50 was 0.5 to 1 µM. `CC(C)Nc1ncc2nc(Nc3c(F)cc(C#N)cc3F)n([C@H]3CC[C@@H](C(N)=O)CC3)c2n1` [Example 441, (1s,4s)-4-(8-(4-cyano-2,6-difluorophenylamino)-2-(isopropylamino)-9H-purin-9-yl)cyclohexanecarboxamide]: the IC50 lay within 0.5 to 1 µM.

For `NC(=O)[C@H]1CC[C@@H](n2c(Nc3c(F)cc(F)cc3F)nc3cnc(N[C@H]4CCCC[C@H]4O)nc32)CC1` [Example 512, (1R,4s)-4-(2-((1S,2R)-2-hydroxycyclohexylamino)-8-(2,4,6-trifluorophenylamino)-9H-purin-9-yl)cyclohexanecarboxamide], the IC50 was greater than 1 µM.

Turning to `C[C@]1(C(N)=O)CC[C@H](n2c(Nc3c(F)cc(Cl)cc3F)nc3cnc(NC4CCOCC4)nc32)CC1` [Example 473, (1r,4r)-4-(8-(4-chloro-2,6-difluorophenylamino)-2-(tetrahydro-2H-pyran-4-ylamino)-9H-purin-9-yl)-1-methylcyclohexanecarboxamide], the IC50 was greater than 1 µM.

With `COC(=O)N1CCC[C@@H](Nc2ncc3nc(Nc4c(Cl)cc(F)cc4Cl)n([C@H]4CC[C@@H](C(N)=O)CC4)c3n2)C1` [Example 410, (R)-methyl 3-(9-((1s,4S)-4-carbamoylcyclohexyl)-8-(2,6-dichloro-4-fluorophenylamino)-9H-purin-2-ylamino)piperidine-1-carboxylate], the IC50 was greater than 1 µM. `N#Cc1cc(F)c(Nc2nc3cnc(N[C@H]4CCCC[C@H]4O)nc3n2[C@H]2CC[C@@H](C(N)=O)CC2)c(Cl)c1` [Example 517, (1R,4s)-4-(8-(2-chloro-4-cyano-6-fluorophenylamino)-2-((1S,2R)-2-hydroxycyclohexylamino)-9H-purin-9-yl)cyclohexanecarboxamide]: the IC50 was greater than 1 µM.

Take `NC(=O)[C@H]1CC[C@@H](n2c(Nc3c(F)cc(F)cc3Cl)nc3cnc(NC4CCCOCC4)nc32)CC1` (stereo partly shown) [Example 538, (1s,4s)-4-(8-(2-chloro-4,6-difluorophenylamino)-2-(oxepan-4-ylamino)-9H-purin-9-yl)cyclohexanecarboxamide]: the IC50 was 0.25 to 0.5 µM.

For the compound `COC(=O)N1CCC[C@@H](Nc2ncc3nc(Nc4ccc(Cl)c(F)c4F)n([C@H]4CC[C@@H](C(N)=O)CC4)c3n2)C1` [Example 411, (R)-methyl 3-(9-((1s,4S)-4-carbamoylcyclohexyl)-8-(4-chloro-2,3 difluorophenylamino)-9H-purin-2-ylamino)piperidine-1-carboxylate], the IC50 is greater than 1 µM. Still for that read-out and setting: the figure for `NC(=O)[C@H]1CC[C@@H](n2c(Nc3c(F)cc(Cl)cc3Cl)nc3cnc(NC4CCCOCC4)nc32)CC1` (stereo partly shown) [Example 537, (1s,4s)-4-(8-(2,4-dichloro-6-fluorophenylamino)-2-(oxepan-4-ylamino)-9H-purin-9-yl)cyclohexanecarboxamide] is less than 0.25 µM.

The assay is the same for the next values; noted with them: Homo sapiens; Lox-IMVI melanoma cell line, anti-proliferative assay; read-out: Activity (IC50 activity level).
With `NC(=O)[C@H]1CC[C@@H](n2c(Nc3c(Cl)cc(F)cc3Cl)nc3cnc(NC4CCC(c5ncno5)CC4)nc32)CC1` (stereo partly shown) [Example 679, (1s,4s)-4-(2-(4-(1,2,4-oxadiazol-5-yl)cyclohexylamino)-8-(2,6-dichloro-4-fluorophenylamino)-9H-purin-9-yl)cyclohexanecarboxamide], the IC50 is greater than 1 µM. On the same count and under the same terms, as for `C[C@]1(C(N)=O)CC[C@@H](n2c(Nc3c(Cl)cc(Cl)cc3Cl)nc3cnc(N[C@@H]4CC[C@@H](O)C4)nc32)CC1` [Example 636, (1S,4s)-4-(2-((1R,3R)-3-hydroxycyclopentylamino)-8-(2,4,6-trichlorophenylamino)-9H-purin-9-yl)-1-methylcyclohexanecarboxamide], the figure is less than 0.25 µM; as for `NC(=O)[C@H]1CC[C@@H](n2c(Nc3c(Cl)cc(Cl)cc3Cl)nc3cnc(NC[C@@H]4CCCC[C@H]4O)nc32)CC1` [Example 661, (1R,4s)-4-(2-(((1S,2R)-2-hydroxycyclohexyl)methylamino)-8-(2,4,6-trichlorophenylamino)-9H-purin-9-yl)cyclohexanecarboxamide], greater than 1 µM. `N#Cc1cc(Cl)c(Nc2nc3cnc(N[C@H]4CCOC[C@H]4F)nc3n2[C@H]2CC[C@@H](C(N)=O)CC2)c(Cl)c1` [Example 765, (1R,4s)-4-(8-(2,6-dichloro-4-cyanophenylamino)-2-((3S,4S)-3-fluorotetrahydro-2H-pyran-4-ylamino)-9H-purin-9-yl)cyclohexanecarboxamide]: the IC50 is less than 0.25 µM. Take `N#Cc1ccc(Nc2nc3cnc(NC4CCC(F)(F)CC4)nc3n2[C@H]2CC[C@@H](C(N)=O)CC2)c(Cl)c1Cl` [Example 695, (1s,4s)-4-(8-(2,3-dichloro-4-cyanophenylamino)-2-(4,4-difluorocyclohexylamino)-9H-purin-9-yl)cyclohexanecarboxamide]: the IC50 is greater than 1 µM.
